From ChEMBL document CHEMBL4251748, “Discovery of Cytochrome P450 4F11 Activated Inhibitors of Stearoyl Coenzyme A Desaturase” (J Med Chem, 2018)

Legend:
[1] = tested on: NCI-H1155; assay: Cytotoxicity against human NCI-H1155 cells incubated for 4 days in presence of sodium oleate; type: functional, cell-based; settings: NCI-H1155, 96 h
[2] = tested on: NCI-H1155; assay: Cytotoxicity against human NCI-H1155 cells expressing CYP4F11 incubated for 4 days; type: functional, cell-based; settings: NCI-H1155, 96 h
[3] = tested on: NCI-H1155; assay: Cytotoxicity against human NCI-H1155 cells expressing pLVX empty vector incubated for 4 days; type: functional, cell-based; settings: NCI-H1155, 96 h
[4] = tested on: NCI-H1155; assay: Cytotoxicity against human NCI-H1155 cells expressing CYP4F11 incubated for 4 days in presence of sodium oleate; type: functional, cell-based; settings: NCI-H1155, 96 h
[5] = Half life in human NCI-H1155 cells at 500 nM by LC-MS/MS analysis; type: ADME, cell-based
[6] = target: T1, CYP4F11 (Homo sapiens, UniProt Q9HBI6); assay: Drug metabolism in human NCI-H1155 cells assessed as CYP4F11-meidated O-demethylation by measuring half life at 500 nM by LC-MS/MS analysis; type: ADME, cell-based
T1 sequence (Q9HBI6 whole entry): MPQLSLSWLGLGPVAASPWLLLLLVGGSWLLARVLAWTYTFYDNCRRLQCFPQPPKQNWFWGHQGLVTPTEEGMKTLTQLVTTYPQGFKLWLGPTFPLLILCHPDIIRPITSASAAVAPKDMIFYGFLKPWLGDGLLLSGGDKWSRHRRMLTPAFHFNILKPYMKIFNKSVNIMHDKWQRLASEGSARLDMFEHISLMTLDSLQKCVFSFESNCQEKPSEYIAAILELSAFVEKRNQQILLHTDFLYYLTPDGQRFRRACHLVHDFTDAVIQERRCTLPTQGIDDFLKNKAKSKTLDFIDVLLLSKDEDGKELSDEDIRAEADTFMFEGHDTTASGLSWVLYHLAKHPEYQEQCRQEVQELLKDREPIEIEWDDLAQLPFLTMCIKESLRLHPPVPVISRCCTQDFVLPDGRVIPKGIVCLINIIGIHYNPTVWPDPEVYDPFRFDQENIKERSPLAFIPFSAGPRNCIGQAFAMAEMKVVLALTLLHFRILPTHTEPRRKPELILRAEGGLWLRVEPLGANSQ

[7] = Half life in mouse liver S9 fraction by LC-MS/MS analysis; type: ADME, subcellular
[8] = Drug level in human NCI-H1155 cells after 4 hrs by LC-MS/MS analysis; type: ADME, cell-based; settings: nci-h1155, 4 h
[9] = tested on: NCI-H2122; assay: Cytotoxicity against human NCI-H2122 cells incubated for 4 days; type: functional, cell-based; settings: NCI-H2122, 96 h
[10] = tested on: NCI-H1155; assay: Ratio of EC50 for cytotoxicity against human NCI-H1155 cells expressing CYP4F11 incubated for 4 days in presence of sodium oleate to EC50 for cytotoxicity against human NCI-H1155 cells expressing CYP4F11 incubated for 4 days in absence of sodium oleate; type: functional

half-life at 0.5 µM [5]: > 48 h
half-life at 0.5 µM [6]: 7.5 h
half-life [7]: 2.63 h
Drug uptake [8]: 1670 nM
SMILES: COc1ccc(CCNC(=O)NC(=O)c2ccc(COc3ccccc3)cc2)cc1
EC50 [1]: > 50000 nM
EC50 [2]: 34 nM
EC50 [3]: > 50000 nM
EC50 [4]: 3600 nM
EC50 [9]: 10 nM
Ratio EC50 [10]: 100
